Results as given in publication PMC8069941, “Potential Anticancer Lipoxygenase Inhibitors from the Red Sea-Derived Brown Algae Sargassum cinereum: An In-Silico-Supported In-Vitro Study” (Antibiotics, 2021).

Tests used:
[1] = target: T1, 15-LOX (Homo sapiens, UniProt O15296); test: 15-LOX inhibition assay (human recombinant enzyme kit); format: biochemical
T1 construct: purchased Cayman Chemical 10011263
T1 sequence (O15296 1-676): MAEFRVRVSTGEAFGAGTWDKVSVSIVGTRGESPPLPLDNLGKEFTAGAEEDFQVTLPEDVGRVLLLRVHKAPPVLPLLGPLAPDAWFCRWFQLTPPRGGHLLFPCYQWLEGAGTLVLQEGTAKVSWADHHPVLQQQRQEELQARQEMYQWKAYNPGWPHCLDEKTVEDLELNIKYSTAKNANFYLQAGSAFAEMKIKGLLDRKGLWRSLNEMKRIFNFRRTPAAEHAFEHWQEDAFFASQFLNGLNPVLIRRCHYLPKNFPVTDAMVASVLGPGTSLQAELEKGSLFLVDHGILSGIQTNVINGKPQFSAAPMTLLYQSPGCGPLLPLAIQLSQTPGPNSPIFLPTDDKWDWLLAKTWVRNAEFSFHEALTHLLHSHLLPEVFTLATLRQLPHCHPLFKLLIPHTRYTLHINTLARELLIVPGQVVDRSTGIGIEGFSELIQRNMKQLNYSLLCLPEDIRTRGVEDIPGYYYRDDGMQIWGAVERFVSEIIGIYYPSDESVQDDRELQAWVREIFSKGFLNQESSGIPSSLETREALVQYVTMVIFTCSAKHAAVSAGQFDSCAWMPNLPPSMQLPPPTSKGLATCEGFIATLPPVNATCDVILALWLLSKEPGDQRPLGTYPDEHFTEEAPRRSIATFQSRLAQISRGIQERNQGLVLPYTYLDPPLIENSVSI
Experimental: Stock solutions were freshly prepared before use, and buffer solution (0.1 M Tris-HCl, PH, 7.4) was used. 10 µL of each compound were prepared, dissolved in the least amount of DMSO and diluted with the stock solution to be in concentrations of (0.001, 0.1, 1, 5, 10 µM) in a final volume of 210 mL. […] Substrate concentration was ranged from 5 to 50 µM. Substrate concentrations (5, 10, 20, 30, 40, 50 µM) were monitored in triplicate for each sample [37]. Doxorubicin was used as a positive control.

[2] = target: T2, 5-LOX (Homo sapiens, UniProt P09917); test: 5-LOX inhibition assay (human recombinant enzyme kit); format: biochemical
T2 construct: purchased Cayman Chemical 60,402
T2 sequence (P09917 1-674): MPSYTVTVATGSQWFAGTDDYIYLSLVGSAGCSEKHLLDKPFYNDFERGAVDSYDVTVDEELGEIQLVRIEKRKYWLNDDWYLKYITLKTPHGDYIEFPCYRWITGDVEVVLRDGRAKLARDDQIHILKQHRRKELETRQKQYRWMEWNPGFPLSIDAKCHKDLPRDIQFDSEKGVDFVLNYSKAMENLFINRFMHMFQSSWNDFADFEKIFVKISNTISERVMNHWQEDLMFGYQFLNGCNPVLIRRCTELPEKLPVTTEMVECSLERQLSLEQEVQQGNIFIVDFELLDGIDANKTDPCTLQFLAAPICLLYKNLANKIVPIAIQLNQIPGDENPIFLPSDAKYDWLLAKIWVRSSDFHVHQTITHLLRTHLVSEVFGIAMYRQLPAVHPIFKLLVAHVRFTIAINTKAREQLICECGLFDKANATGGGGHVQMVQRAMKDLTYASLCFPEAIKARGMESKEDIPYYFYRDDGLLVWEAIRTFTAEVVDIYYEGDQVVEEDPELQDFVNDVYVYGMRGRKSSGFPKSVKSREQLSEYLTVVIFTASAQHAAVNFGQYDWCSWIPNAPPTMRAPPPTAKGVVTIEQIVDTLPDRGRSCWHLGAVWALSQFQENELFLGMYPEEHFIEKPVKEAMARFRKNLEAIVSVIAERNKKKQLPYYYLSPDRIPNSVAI
Experimental: The ability of the isolated compounds 12, 13, and 19 to inhibit 5-LOX and 15-LOX enzymes (IC50 and Ki values, µM) was determined using human recombinant enzyme assay kits (catalog no 60,402 and 10011263, Cayman Chemical, Ann Arbor, MI, USA) following manufacturer’s specifications. Stock solutions were freshly prepared before use, and buffer solution (0.1 M Tris-HCl, PH, 7.4) was used. 10 µL of each compound were prepared, dissolved in the least amount of DMSO and diluted with the stock solution to be in concentrations of (0.001, 0.1, 1, 5, 10 µM) in a final volume of […]. The kinetic parameters for both 5-LOX and 15-LOX were determined by measuring the increase in absorbance at 238 nm in an Agilent 8453 diode array spectrophotometer (Agilent Technologies, Santa Clara, CA, USA). Substrate concentration was ranged from 5 to 50 µM. Substrate concentrations (5, 10, 20, 30, 40, 50 µM) were monitored in triplicate for each sample [37]. Doxorubicin was used as a positive control.

[3] = in vitro, human recombinant enzyme

Ki ([1]; in vitro inhibition constant): 4.2 ± 0.1 µM
IC50 [1, 3]: 6.7 ± 0.3 µM
Ki ([2]; in vitro inhibition constant): 1.4 ± 0.2 µM
IC50 [2, 3]: 2.1 ± 0.4 µM
Structure (SMILES): CCCCC/C=C\C/C=C\C/C=C\C/C=C\CCCCOCC(O)CO[C@H]1O[C@H](CO)[C@@H](O)[C@H](O)[C@H]1O (stereo partly drawn) [compound 19, 1-O-arachidonyl-3-O-(α-D-glucopyranosyl) glycerol]
